Experimental data published in patent publication US20230099089A1, “ANTIVIRAL SUBSTANCES WITH A WIDE SPECTRUM OF ACTIVITY” (Universitaet zu Luebeck Koerperschaft des Oeffentlichen …, priority 2020, published 2023).
Like-named read-outs stand apart in the source and are kept apart here.

Legend:
[1] = metabolic stability in human microsomes; conditions: after 30 minutes
[2] = metabolic stability in mouse microsomes; conditions: after 30 minutes
[3] = pharmacokinetic study 2 mg/kg i.v.; type: in vivo; conditions: for CO / MRI / V / AUC(0-t) / clearance / half-life: 2 mg/kg i.v.; for AUC(0-t) / clearance / half-life: in vivo, iv
Source text: The bioavailability of the lead compound DZLO8 was also characterized in detail in an external CRO- study and the results verified.

[4] = plasma protein binding; type: in vitro ADME
[5] = toxicity in mice
[6] = pharmacokinetic study after subcutaneous injection in CD-1 mice
[7] = biological target: MERS-CoV Mpro (Middle East respiratory syndrome-related coronavirus, UniProt K9N7C7); type: biochemical
[8] = tested on: EV-A71; assay: microbe, parasite or virus in culture; type: cell-based; conditions: Enterovirus A, EVA71, read-out: EC50 EV-A71
[9] = tested on: CVB3; assay: microbe, parasite or virus in culture; type: cell-based, coxsackievirus B3; conditions: Enterovirus B, CVB3, read-out: EC50 CVB3
[10] = tested on: MERS-CoV; assay: microbe, parasite or virus in culture; type: cell-based, MERS coronavirus; conditions: Middle East respiratory syndrome-related coronavirus
[11] = tested on: SARS-CoV; assay: microbe, parasite or virus in culture; type: cell-based; conditions: Severe acute respiratory syndrome coronavirus, Vero C1008, read-out: EC50 SARS-CoV
[12] = tested on: HCoV-229E; assay: microbe, parasite or virus in culture; type: cell-based; conditions: Human coronavirus 229E, Huh-7, read-out: EC50 HCoV-229E
[13] = CD-1 mice, 20 mg/kg subcutaneous
[14] = CD-1 mice, 20 mg/kg subcutaneous, after 24 hours

Sequence of MERS-CoV Mpro (K9N7C7 3248-3553 limits assumed): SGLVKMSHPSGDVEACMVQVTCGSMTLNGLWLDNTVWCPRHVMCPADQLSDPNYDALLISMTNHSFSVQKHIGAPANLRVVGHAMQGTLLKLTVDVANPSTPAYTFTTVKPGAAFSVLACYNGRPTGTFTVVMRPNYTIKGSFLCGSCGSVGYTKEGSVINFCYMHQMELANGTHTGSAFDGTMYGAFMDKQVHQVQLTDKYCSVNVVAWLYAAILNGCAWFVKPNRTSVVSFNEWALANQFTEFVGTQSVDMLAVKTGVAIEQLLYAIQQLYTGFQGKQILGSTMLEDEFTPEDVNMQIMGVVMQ

SMILES: CC(C)(C)OC(=O)Nc1cccn([C@@H](CC2CCCCC2)C(=O)N[C@@H](C[C@@H]2CCNC2=O)C(=O)C(=O)NC2CC2)c1=O [RHCDS1e]
- compound remained metabolically stable [1]: 60%
- compound remained metabolically stable [2]: 80%
- CO [3]: 461.44 ± 345.0 ng/mL
- MRI [3]: 0.47 ± 0.1 h
- V [3]: 6.73 ± 0.4 L/kg
- AUC(0-t) [3]: 193 ± 59 ng·h/mL
- clearance [3]: 178 ± 51.2 mL/min/kg
- half-life [3]: 27 ± 6 min
- improved half-life compared to the lead compound ([3]; versus DZL08): 50%
- fraction unbound [4]: 0.06
- toxicity in mice [5]: No evidence of toxicity
- MRT ([6]; CD-1, mouse, in vivo, sc, 20 mg/kg): ~95.4 min
- Cmax [6, 13]: 334.50 ng/mL
- time excreted in urine [6, 13]: up to 24 hours
- time the compound remained in plasma [6, 13]: about 4 hours
- concentration in broncheoalveolar washing fluid (BALF) [6, 14]: 52.7 ng/mL
- concentration in the lung [6, 14]: 135 ng per g tissue

SMILES: CC(C)(C)OC(=O)Nc1cccn([C@@H](CC2CC2)C(=O)N[C@@H](C[C@@H]2CCNC2=O)C(=O)C(=O)NCc2ccccc2)c1=O [RHCDS1c]
- IC50 [7]: 0.58 µM

SMILES: O=C(/C=C/c1ccccc1)N[C@@H](CC1CCCCC1)C(=O)N[C@@H](C[C@@H]1CCNC1=O)C(=O)C(=O)NCc1ccccc1 [DZL08, reference compound]
- CO [3]: 278.34 ± 138.5 ng/mL
- MRI [3]: 0.48 ± 0.0 h
- V [3]: 8.20 ± 4.1 L/kg
- AUC(0-t) [3]: 135 ± 74.6 ng·h/mL
- clearance [3]: 292 ± 162 mL/min/kg
- half-life [3]: 19.8 min
- EC50 [8]: 3.7 µM
- EC50 [9]: 2.8 µM
- fraction unbound ([4]; read-out: plasma protein binding): 0.01
- EC50 ([10]; Huh-7, read-out: EC50 MERS-CoV): 0.0004 µM
- EC50 ([10]; Vero, read-out: EC50 MERS-CoV): 5 µM
- EC50 [11]: 2.1 µM
- EC50 [12]: 1.8 µM
